The results in this text go back to patent US10106540B2, “HDAC6 inhibitors and their uses” (Universität Regensburg, priority 2014, dated 2018).

Each structure is given as a SMILES string. pIC50: −log10 of the molar value.

Experiment [1] has as its system nuclear proteins. Description: Nuclear extracts versus cytoplasm after MARB1 stimulation, Western blot. It counts as cell-based. As for the experimental part: Nuclear extracts were generated and compared to the cytoplasm by western blotting. 6 Mio cells were seeded on a 10 cm dish and incubated 2 h in the medium for adaption. SAHA and […] are pan-HDACi. HSP90 was used as a loading control for the cytoplasm. n=2
SDS-PAGE and Western Blot Analysis Method b
Western Blot analysis method b was used for the blots illustrated in FIGS. 6 to 9 and 11: Equal amounts of proteins were separated with a sodium dodecyl sulfate-polyacrylamide gel electrophoresis (SDS-PAGE) using an electrophoresis buffer by Laemmli with 1% SDS. The proteins were transferred to a nitrocellulose membrane by western blotting using a wet blot chamber. The blots were incubated with the primary antibody, after blocking the membrane for 1 h in 5% non-fat dry milk in tris-buffered saline (TBS) containing 0.05% Tween-20. Fluorescence coupled secondary antibodies (LI-COR) were used and the signal was measured on the Odyssey to detect the proteins.
The cells for nuclear extracts were harvested on ice after stimulation and washed with cold PBS. The pellet was resuspended in lysis buffer A (10 mM HEPES pH 7.9, 1.5 mM MgCl2, 10 mM KCl, 1 mM DTT and protease and phosphatase inhibitor) and incubated for 15 min on ice followed by addition of NP-40 to a final concentration of 1%. […] The protein level was assessed by Bradford assay (Goder et al. 2015).

Experiment [2] deals with RKO cells. Description: Western blot analysis in RKO colorectal cancer cells. It counts as cell-based, human. As for the experimental part: FIG. 5. Various cancer cells were treated for 24 h as shown and tested by Western blot analysis.
(D) Inhibition of HDAC6 protects it from degradation by the addition of a pro-apoptotic agent (staurosporine, ST).
The total amount of vinculin serves as a loading control; Proof of tubulin acetylation serves as proof of the treatment accuracy. The loss of the caspase-3 corresponds to the induction of apoptosis (programmed cell death).
Human colon cancer cell lines RKO (ATCC Accession No: CRL-2577) and HCT-116 (DSMZ Accession No: ACC-581).
(§1) The assay is carried out as described in Buchwald et al. 2010 and Buchwald et al. 2013. Briefly, cells were collected and lysed in NET-N buffer (150 mM NaCl, 1 mM EDTA, 50 mM Tris-HCl (pH 7.8), 0.5% Nonidet P-40 (NP-40), 1 mM phenylmethylsulfonyl fluoride, 0.5 mg/ml leupeptin and 0.5 mg/ml pepstatin) followed by mild sonification on ice. Protein lysate ([…]) was boiled in Laemmli buffer and separated on SDS-polyacrylamide gel electrophoresis for western blotting with specific antibodies. All lysates were assessed by Bradford assay for protein concentrations.
Background: A western blot detects proteins with antibodies after separation by electrophoresis.

In experiment [3] the test system is HCT-116 cells. Kind of experiment: Western blot analysis in HCT-116 colon cancer cells. Format: cell-based, human. How it is done:
FIG. 5. Various cancer cells were treated for 24 h as shown and tested by Western blot analysis. […] Human colon cancer cell lines RKO (ATCC Accession No: CRL-2577) and HCT-116 (DSMZ Accession No: ACC-581). Western Blot Analysis a […] Protein lysate ([…]) was boiled in Laemmli buffer and separated on SDS-polyacrylamide gel electrophoresis for western blotting with specific antibodies. All lysates were assessed by Bradford assay for protein concentrations.

In experiment [4] the test system is UXF 1138. Description: In vitro activity against solid tumor cell lines (FACS analysis method a). It counts as cell-based. The settings on record: Homo sapiens, Uterus. As for the experimental part: Human uterus cancer cell line UXF 1138 (Oncotest GmbH, Freiburg, Germany)
(§2) The assay is carried out as described in Pietschmann et al., 2012 and Brandl et al. 2012. Briefly, 10^5 cells were fixed in 1 ml 70% EtOH with 0.05% Tween-20 overnight at 4° C. The following day, cells were washed with 3 ml 38 mM sodium citrate, pH 7.4, and incubated for 20 min at 37° C. in 0.5 ml 38 mM sodium citrate, pH 7.4, supplemented with 50 μg/ml propidium iodide and 10 μg/ml RNase-A. DNA contents of the cells were measured by fluorescence-activated cell sorter (FACS). This method allows detection of the apoptotic subG1-fraction, which has a DNA content below 2n due to apoptotic cleavage of DNA. Equally, the cell cycle profile can be assessed with this method.
(§3) The novel HDAC6 inhibitors were tested in a panel of tumor cell lines for cytostatic/toxic activities (see Table 2).
(In general: In flow cytometry, cells or beads pass a laser one at a time.)

The subject of experiment [5] is MAXF MCF-7. Described as above. It counts as cell-based. The settings on record: Homo sapiens, MCF7, Breast. How it is done: (§4) Human breast cancer cell lines MAXF 401 and MAXF MCF-7 (Oncotest GmbH, Freiburg, Germany)
as §2, §3

Experiment [6] concerns MAXF 401. The experiment is described as above. Format: cell-based. The settings on record: Homo sapiens, MAXF401, Breast. As for the experimental part: as §4, §2, §3
Experiment [7] has as its system HEL leukemic cells. Description: Western blot analysis in HEL leukemic cells (JAK2 V617F). Format: cell-based, human. The settings on record: 24 h, Western blot. How it is done:
Human leukemia cell line HEL with JAK2 V617F mutation (DSMZ Accession No: ACC-11).
as §1

The subject of experiment [8] is BV173 cells. Kind of experiment: Cell cycle analysis by PI staining and flow cytometry (FACS method b). It counts as cell-based, human. To be noted: BV173, PI staining. How it is done:
150,000 cells were seeded in 12 well plate and incubated for 2 h for adaption. Cells were harvested on ice and prepared for FACS analysis (following method b). The FACS blots were generated using FACS diva software. n=1
After harvesting the cells on ice and washing them with 1 ml cold PBS, the Pellet were fixed for 1 h in 80% Ethanol by −20° C. After centrifugation the supernatant was discarded and the pellet was resuspended in 333 μl PBS with 10 μg RNase. The cells were incubated 1 h at room temperature with RNase before adding propidium iodide to a final concentration of 16.4 μg/ml and measured by flow cytometry (BD FACS Canto II).

In the case of `CN1C(=O)C2CN(Cc3c2c2ccccc2n3Cc2ccc(C(=O)NO)cc2)C1=O` (centres unmarked) [MARB1, N-Hydroxy-4-((4-methyl-3,5-dioxo-3,4,5,6-tetrahydro-2,6-methano[1,3]diazocino[5,6-b]indol-11(1H)-yl)methyl)benzamide], in experiment [1], the “effects on nuclear proteins” value is “no detectable effects”. The hyperacetylation of tubulin entry in experiment [2] (0.5 μM, 24 h) is given as “sufficient to induce hyperacetylation of tubulin”. For the same molecule, in experiment [2] (with staurosporine), the “HDAC6 loss in staurosporin (ST)-treated cells” value was “protects ST-treated RKO cells”. Moreover, the “tubulin acetylation and degradation” value is “triggers the hyperacetylation of tubulin without causing its degradation” in experiment [3] (1 μM, 24 h (FIG. 5B)); “starts the hyperacetylation of tubulin in colon carcinoma cells (RKO and HCT-116 cells) without destroying it” in experiment [3] (HCT-116 cells, 24 h). Moreover, the pIC50 – broadly, the IC50 on a negative log10 scale, so that one unit is a factor of ten – in experiment [4] was 5.80; in experiment [5], 5.63; in experiment [6], 5.64. Also, the “concentration with about the same potency in hyperacetylation of tubulin-α” value in experiment [7] was roughly 1000 nM. The “changes in the cell cycle” value in experiment [8] is on record as “no changes in the cell cycle”. In addition, the subG1 population entry in experiment [8] is listed as “no increase”.
